We go through three compounds from patent US5756776A, “Semi-synthetic taxanes with anti-tumoural activity” (Indena S.p.A., priority 1994, dated 1998).

A word on the IC50: it is the concentration at which inhibition is half-maximal.

Assay type in all cases: cell-based
Test [1] has as its system L1210 (murine leukemia). As to the kind of experiment: cytotoxic effect on L1210 tumour cell line (comparison with taxol). The following applies: exposure time 48 h, RPMI 1640 + 20 mM HEPES + 2 mM L-glutamine. How it is done:
(§1) The products of the present invention were screened for their cytotoxic effect on different tumour cell lines, comparing their action with that of taxol.
(§2) Standard conditions: substrate RPMI 1640 + 20 mM HEPES + 2 mM Lglutamine.

The subject of test [2] is A121 (Human ovarian). Kind of test: cytotoxic effect on A121 tumour cell line (comparison with taxol). The following applies: exposure time 72 h, RPMI 1640 + 20 mM HEPES + 2 mM L-glutamine. The procedure: as §1, §2
The subject of test [3] is A549 (Human NSCLC). Kind of test: cytotoxic effect on A549 tumour cell line (comparison with taxol). The following applies: exposure time 72 h, RPMI 1640 + 20 mM HEPES + 2 mM L-glutamine. The procedure:
as §1, §2

Test [4] deals with HT-29 (Human colon). Kind of test: cytotoxic effect on HT-29 tumour cell line (comparison with taxol). The following applies: exposure time 72 h, RPMI 1640 + 20 mM HEPES + 2 mM L-glutamine. How it is done: as §1, §2
For test [5], the system named is MCF7 (Human breast). As to the kind of experiment: cytotoxic effect on MCF7 tumour cell line (comparison with taxol). The settings on record: exposure time 72 h, RPMI 1640 + 20 mM HEPES + 2 mM L-glutamine. How it is done:
as §1, §2

In test [6] the test system is MCF7-ADR (resistant). As to the kind of experiment: cytotoxic effect on MCF7-ADR resistant tumour cell line (comparison with taxol). The settings on record: exposure time 72 h, RPMI 1640 + 20 mM HEPES + 2 mM L-glutamine. How it is done: as §1, §2

As for “13-[(2R, 3S)-3-phenyl-2-hydroxy-3-tert-butoxycarbonylamino-propanoyl]-10-deacetyl-11,12-dihydrobaccatine III [1b]”, the IC50 in test [1] came to 32 ± 0.1 nM; in test [2] it was 1.6 ± 0.2 nM; in test [3], 2.1 ± 0.3 nM; in test [4], 3.6 ± 0.4 nM; in test [5] it was 0.8 ± 0.2 nM; in test [6], 128 ± 6.2 nM.
As for `CC(=O)O[C@@]1([C@@H]2C(C)=C(O)C(=O)C3=C(C)[C@@H](OC(=O)[C@H](O)[C@@H](NC(=O)OC(C)(C)C)c4ccccc4)C[C@@](O)([C@H]2OC(=O)c2ccccc2)C3(C)C)CO[C@@H]1CCO` [5a, 13-[(2R, 3S)-3-phenyl-2-hydroxy-3-tert-butoxy-carbonylamino-propanoyl]-C-seco-10-deacetylbaccatine III], the IC50 in test [1] (Mus musculus) came out at 35 ± 1.2 nM; in test [2], 1.9 nM; in test [3], 3.3 nM; in test [4], 3.2 nM; in test [5], 1.5 nM; in test [6] (Homo sapiens, NCI/ADR-RES), 31.3 nM.
For `CC(=O)O[C@@]12CO[C@@H]1C[C@H](O)[C@@]1(C)C(=O)[C@@H](O)C3=C(C)[C@@H](OC(=O)[C@H](O)[C@@H](NC(=O)OC(C)(C)C)c4ccccc4)C[C@@](O)([C@@H](OC(=O)c4ccccc4)[C@H]21)C3(C)C` [1a, 13-[(2R, 3S)-3-phenyl-2-hydroxy-3-tert-butoxycarbonylamino-propanoyl]-10-epi-10-deacetylbaccatine III], the IC50 in test [1] (Mus musculus) stood at 46 ± 2.1 nM; in test [2], 2.8 ± 0.3 nM; in test [3], 6.9 ± 0.3 nM; in test [4] it was 3.4 ± 0.1 nM; in test [5], 2.2 ± 0.2 nM; in test [6] (Homo sapiens, NCI/ADR-RES), 130 ± 2.2 nM.
